# Measured values from publication PMC7265341, “Quantifying CDK inhibitor selectivity in live cells” (Nature Communications, 2020).
# pIC50: −log10 of the molar value. Where two headings read alike, the source gives them in different places.
# What was measured:
# Type in all cases: binding
# CDK1/Cyclin E1 = CDK1/Cyclin E1 (Homo sapiens, UniProt P06493); assay: NanoBRET live-cell target engagement, CDK1-NanoLuc/Cyclin E1 in HEK-293; settings: for inhibition at 10 µM: read-out: CDK1/E1 Inhibition at 10µM (%)
# CDK1/Cyclin E1, sequence (P06493 whole entry): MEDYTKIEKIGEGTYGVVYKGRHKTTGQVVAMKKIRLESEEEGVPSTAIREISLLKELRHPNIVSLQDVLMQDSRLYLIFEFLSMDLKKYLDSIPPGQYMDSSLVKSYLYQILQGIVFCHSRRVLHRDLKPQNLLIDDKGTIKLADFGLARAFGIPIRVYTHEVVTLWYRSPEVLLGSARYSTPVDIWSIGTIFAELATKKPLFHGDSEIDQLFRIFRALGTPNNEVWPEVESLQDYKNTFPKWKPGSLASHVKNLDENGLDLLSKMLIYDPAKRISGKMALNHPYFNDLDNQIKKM
# CDK1/Cyclin E1, sequence (P24864 whole entry partner): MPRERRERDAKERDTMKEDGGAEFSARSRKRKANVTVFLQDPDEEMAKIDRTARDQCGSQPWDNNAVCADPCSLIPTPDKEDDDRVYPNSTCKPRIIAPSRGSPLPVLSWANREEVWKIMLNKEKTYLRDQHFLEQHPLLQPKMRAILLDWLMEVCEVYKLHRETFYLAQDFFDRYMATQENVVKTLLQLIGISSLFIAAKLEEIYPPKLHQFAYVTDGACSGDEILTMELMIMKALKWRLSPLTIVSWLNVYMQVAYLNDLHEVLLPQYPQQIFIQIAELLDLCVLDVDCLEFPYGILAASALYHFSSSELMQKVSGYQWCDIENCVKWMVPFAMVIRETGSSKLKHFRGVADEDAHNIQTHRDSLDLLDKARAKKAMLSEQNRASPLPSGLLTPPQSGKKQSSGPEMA
# CDK2/Cyclin E1 = CDK2/Cyclin E1 (Homo sapiens, UniProt P24941); assay: NanoBRET live-cell target engagement, CDK2-NanoLuc/Cyclin E1 in HEK-293; settings: 10µM, read-out: CDK2/E1 Inhibition at 10µM (%)
# CDK3/Cyclin E1 = CDK3/Cyclin E1 (Homo sapiens, UniProt Q00526); assay: NanoBRET live-cell target engagement, CDK3-NanoLuc/Cyclin E1 in HEK-293; settings: for inhibition at 10 µM: read-out: CDK3/E1 Inhibition at 10µM (%); for pIC50: read-out: CDK3/E1 IC50
# CDK3/Cyclin E1, sequence (Q00526 whole entry): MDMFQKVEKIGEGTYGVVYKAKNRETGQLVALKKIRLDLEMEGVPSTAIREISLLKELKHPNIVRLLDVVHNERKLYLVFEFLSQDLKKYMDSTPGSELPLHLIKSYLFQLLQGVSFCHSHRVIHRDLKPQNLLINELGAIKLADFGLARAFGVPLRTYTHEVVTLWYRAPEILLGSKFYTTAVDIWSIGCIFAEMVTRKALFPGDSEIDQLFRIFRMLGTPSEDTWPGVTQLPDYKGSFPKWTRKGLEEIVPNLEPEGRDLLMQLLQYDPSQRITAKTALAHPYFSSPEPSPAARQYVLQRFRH
# CDK3/Cyclin E1, sequence (P24864 whole entry partner): as the sequence (P24864 whole entry partner) above
# CDK4/Cyclin D1 = CDK4/Cyclin D1 (Homo sapiens, UniProt P11802); assay: NanoBRET live-cell target engagement, NanoLuc-CDK4/Cyclin D1 in HEK-293; settings: for inhibition at 10 µM: read-out: CDK4/D1 Inhibition at 10µM (%)
# CDK4/Cyclin D1, sequence (P11802 whole entry): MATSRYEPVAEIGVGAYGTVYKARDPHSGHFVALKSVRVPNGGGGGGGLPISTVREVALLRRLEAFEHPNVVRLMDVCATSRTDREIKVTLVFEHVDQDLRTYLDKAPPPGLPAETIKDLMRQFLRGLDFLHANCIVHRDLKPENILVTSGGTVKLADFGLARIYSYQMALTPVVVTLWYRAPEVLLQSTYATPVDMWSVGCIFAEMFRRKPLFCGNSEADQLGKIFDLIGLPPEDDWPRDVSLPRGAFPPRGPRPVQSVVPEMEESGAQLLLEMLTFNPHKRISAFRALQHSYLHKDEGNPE
# CDK4/Cyclin D1, sequence (P24385 whole entry partner): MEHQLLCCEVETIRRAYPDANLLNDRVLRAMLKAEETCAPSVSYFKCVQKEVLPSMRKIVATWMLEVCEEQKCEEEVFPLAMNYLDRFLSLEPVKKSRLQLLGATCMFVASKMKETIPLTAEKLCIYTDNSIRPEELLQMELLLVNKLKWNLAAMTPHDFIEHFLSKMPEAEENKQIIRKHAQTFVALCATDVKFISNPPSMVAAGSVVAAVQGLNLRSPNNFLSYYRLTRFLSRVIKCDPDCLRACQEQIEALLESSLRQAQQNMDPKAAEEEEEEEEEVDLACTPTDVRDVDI
# CDK5/CDK5R1 = CDK5/CDK5R1 (Homo sapiens, UniProt Q00535); assay: NanoBRET live-cell target engagement, CDK5-NanoLuc/CDK5R1 in HEK-293; settings: for inhibition at 10 µM: read-out: CDK5/CDK5R1 Inhibition at 10µM (%)
# CDK5/CDK5R1, sequence (Q00535 whole entry): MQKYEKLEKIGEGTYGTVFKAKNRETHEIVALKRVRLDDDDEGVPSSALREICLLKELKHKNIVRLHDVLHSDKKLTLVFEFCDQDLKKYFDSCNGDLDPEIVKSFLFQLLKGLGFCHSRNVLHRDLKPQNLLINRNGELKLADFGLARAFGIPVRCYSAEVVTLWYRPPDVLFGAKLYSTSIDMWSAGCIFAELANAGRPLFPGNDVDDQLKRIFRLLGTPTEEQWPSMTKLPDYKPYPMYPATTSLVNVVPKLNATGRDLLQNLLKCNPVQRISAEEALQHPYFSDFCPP
# CDK5/CDK5R1, sequence (Q15078 whole entry partner): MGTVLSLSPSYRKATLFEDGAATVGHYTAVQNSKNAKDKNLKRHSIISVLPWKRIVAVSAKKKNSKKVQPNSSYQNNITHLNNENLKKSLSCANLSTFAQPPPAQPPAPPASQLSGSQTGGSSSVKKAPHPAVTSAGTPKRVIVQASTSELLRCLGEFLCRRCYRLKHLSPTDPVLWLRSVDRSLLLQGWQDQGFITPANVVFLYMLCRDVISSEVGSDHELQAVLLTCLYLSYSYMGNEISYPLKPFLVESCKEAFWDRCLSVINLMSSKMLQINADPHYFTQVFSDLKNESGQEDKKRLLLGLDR
# CDK6/Cyclin D1 = CDK6/Cyclin D1 (Homo sapiens, UniProt Q00534); assay: NanoBRET live-cell target engagement, NanoLuc-CDK6/Cyclin D1 in HEK-293; settings: for inhibition at 10 µM: read-out: CDK6/D1 Inhibition at 10µM (%); for pIC50: read-out: CDK6/D1 IC50
# CDK6/Cyclin D1, sequence (Q00534 whole entry): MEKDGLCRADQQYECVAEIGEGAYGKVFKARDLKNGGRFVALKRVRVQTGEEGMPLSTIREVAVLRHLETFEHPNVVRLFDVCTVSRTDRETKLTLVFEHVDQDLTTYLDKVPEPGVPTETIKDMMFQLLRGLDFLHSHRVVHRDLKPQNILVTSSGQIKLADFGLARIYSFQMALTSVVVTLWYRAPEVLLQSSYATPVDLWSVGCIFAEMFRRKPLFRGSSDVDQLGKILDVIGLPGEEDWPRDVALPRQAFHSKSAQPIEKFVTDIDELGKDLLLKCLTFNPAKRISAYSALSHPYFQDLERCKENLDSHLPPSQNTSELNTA
# CDK6/Cyclin D1, sequence (P24385 whole entry partner): as the sequence (P24385 whole entry partner) above
# CDK7 = CDK7 (Homo sapiens, UniProt P50613); assay: NanoBRET live-cell target engagement, NanoLuc-CDK7 in HEK-293; settings: for inhibition at 10 µM: read-out: CDK7 Inhibition at 10µM (%); for pIC50: read-out: CDK7 IC50
# CDK7, sequence (P50613 whole entry): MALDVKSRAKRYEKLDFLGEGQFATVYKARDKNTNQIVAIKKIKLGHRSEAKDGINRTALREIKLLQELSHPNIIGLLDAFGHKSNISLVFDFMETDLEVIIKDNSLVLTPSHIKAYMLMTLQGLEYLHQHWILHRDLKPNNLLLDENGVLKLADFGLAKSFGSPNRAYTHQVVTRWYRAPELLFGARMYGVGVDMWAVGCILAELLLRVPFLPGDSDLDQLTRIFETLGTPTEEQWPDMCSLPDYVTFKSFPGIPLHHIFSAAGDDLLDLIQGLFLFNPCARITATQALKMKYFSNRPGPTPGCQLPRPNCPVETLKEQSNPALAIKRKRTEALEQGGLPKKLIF
# CDK8/Cyclin C = CDK8/Cyclin C (Homo sapiens, UniProt P49336); assay: NanoBRET live-cell target engagement, NanoLuc-CDK8/Cyclin C in HEK-293; settings: 10µM, read-out: CDK8/C Inhibition at 10µM (%)
# CDK8/Cyclin C, sequence (P49336 whole entry): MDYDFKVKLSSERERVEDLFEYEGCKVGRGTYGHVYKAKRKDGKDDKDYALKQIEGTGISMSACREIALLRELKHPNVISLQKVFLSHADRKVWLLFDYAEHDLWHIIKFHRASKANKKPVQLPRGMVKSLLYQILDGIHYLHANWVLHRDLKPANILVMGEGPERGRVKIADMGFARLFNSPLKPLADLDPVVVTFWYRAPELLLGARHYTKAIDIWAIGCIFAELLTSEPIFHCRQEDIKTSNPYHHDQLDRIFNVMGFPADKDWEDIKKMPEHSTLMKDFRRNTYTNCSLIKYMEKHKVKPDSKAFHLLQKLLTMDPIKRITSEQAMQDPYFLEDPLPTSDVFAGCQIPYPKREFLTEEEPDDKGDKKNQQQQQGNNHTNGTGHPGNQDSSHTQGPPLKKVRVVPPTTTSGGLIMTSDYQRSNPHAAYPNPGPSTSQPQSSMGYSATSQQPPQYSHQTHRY
# CDK8/Cyclin C, sequence (P24863 whole entry partner): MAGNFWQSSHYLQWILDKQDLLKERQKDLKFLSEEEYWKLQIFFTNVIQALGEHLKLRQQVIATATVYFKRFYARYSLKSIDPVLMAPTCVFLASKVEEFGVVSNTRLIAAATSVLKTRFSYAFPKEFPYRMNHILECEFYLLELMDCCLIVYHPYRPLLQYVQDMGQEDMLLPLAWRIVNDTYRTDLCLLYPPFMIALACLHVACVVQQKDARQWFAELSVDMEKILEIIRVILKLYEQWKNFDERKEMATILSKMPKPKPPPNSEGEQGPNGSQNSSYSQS
# CDK9/Cyclin K = CDK9/Cyclin K (Homo sapiens, UniProt P50750); assay: NanoBRET live-cell target engagement, NanoLuc-CDK9/Cyclin K in HEK-293; settings: 10µM, read-out: CDK9/K Inhibition at 10µM (%)
# CDK11B/Cyclin L2 = CDK11B/Cyclin L2 (Homo sapiens, UniProt P21127); assay: NanoBRET live-cell target engagement, CDK11B-NanoLuc/Cyclin L2 in HEK-293; settings: 10µM, read-out: CDK11b/L2 Inhibition at 10µM (%)
# CDK11B/Cyclin L2, sequence (P21127 1-782 isoform P21127-2): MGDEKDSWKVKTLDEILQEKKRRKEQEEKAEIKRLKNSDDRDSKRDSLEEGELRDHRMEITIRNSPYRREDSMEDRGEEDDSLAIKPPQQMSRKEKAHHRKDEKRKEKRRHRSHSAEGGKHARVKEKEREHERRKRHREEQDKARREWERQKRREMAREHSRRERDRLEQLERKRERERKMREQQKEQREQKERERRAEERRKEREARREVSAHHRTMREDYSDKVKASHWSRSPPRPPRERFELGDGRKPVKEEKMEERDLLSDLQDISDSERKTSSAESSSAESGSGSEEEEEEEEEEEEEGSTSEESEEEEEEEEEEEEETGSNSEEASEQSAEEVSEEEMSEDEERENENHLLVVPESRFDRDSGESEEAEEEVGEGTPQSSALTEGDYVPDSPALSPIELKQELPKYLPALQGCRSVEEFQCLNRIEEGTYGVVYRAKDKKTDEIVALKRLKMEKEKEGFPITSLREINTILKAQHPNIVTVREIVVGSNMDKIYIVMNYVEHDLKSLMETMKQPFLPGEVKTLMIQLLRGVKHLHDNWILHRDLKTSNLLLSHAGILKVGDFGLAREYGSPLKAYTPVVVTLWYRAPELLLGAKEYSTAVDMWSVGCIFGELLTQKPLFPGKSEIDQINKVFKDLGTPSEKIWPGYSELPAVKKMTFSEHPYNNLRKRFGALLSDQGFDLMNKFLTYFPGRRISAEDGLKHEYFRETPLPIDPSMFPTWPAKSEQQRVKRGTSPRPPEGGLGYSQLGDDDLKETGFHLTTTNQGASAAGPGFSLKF
compound,measurement,setting,value
CN1C/C=C/CCOc2cccc(c2)-c2ccnc(n2)Nc2cccc(c2)C1 [SB1317],inhibition at 10 µM,CDK1/Cyclin E1; average of experiments,95.4%
same,inhibition at 10 µM,CDK1/Cyclin E1; independent experiment 1,95%
same,inhibition at 10 µM,CDK1/Cyclin E1; independent experiment 2,95.8%
same,pIC50,"CDK1/Cyclin E1; average (± SEM where n=3), read-out: CDK1/E1 IC50",6.70
same,pIC50,"CDK1/Cyclin E1; independent experiment 1, read-out: CDK1/E1 IC50",6.70
same,pIC50,"CDK1/Cyclin E1; independent experiment 2, read-out: CDK1/E1 IC50",6.68
same,pIC50,"CDK1/Cyclin E1; live HEK-293, 2 h, mean ± S.E.M. (n=3) or mean (n=2), read-out: IC50 for CDK/cyclin complexes, CDK1/E1",6.70
same,inhibition at 10 µM,CDK2/Cyclin E1; average of experiments,96.5%
same,inhibition at 10 µM,CDK2/Cyclin E1; independent experiment 1,98%
same,inhibition at 10 µM,CDK2/Cyclin E1; independent experiment 2,95%
same,inhibition at 10 µM,CDK3/Cyclin E1; average of experiments,97.1%
same,inhibition at 10 µM,CDK3/Cyclin E1; independent experiment 1,98.4%
same,inhibition at 10 µM,CDK3/Cyclin E1; independent experiment 2,95.9%
same,pIC50,CDK3/Cyclin E1; average (± SEM where n=3),7.36
same,pIC50,CDK3/Cyclin E1; independent experiment 1,7.35
same,pIC50,CDK3/Cyclin E1; independent experiment 2,7.37
same,inhibition at 10 µM,CDK4/Cyclin D1; average of experiments,99.8%
same,inhibition at 10 µM,CDK4/Cyclin D1; independent experiment 1,100%
same,inhibition at 10 µM,CDK4/Cyclin D1; independent experiment 2,99.2%
same,pIC50,"CDK4/Cyclin D1; average (± SEM where n=3), read-out: CDK4/D1 IC50",6.85
same,pIC50,"CDK4/Cyclin D1; independent experiment 1, read-out: CDK4/D1 IC50",6.85
same,pIC50,"CDK4/Cyclin D1; independent experiment 2, read-out: CDK4/D1 IC50",6.82
same,pIC50,"CDK4/Cyclin D1; live HEK-293, 2 h, mean ± S.E.M. (n=3) or mean (n=2), read-out: IC50 for CDK/cyclin complexes, CDK4/D1",6.85
same,inhibition at 10 µM,CDK5/CDK5R1; average of experiments,93.3%
same,inhibition at 10 µM,CDK5/CDK5R1; independent experiment 1,88.5%
same,inhibition at 10 µM,CDK5/CDK5R1; independent experiment 2,98.1%
same,pIC50,"CDK5/CDK5R1; average (± SEM where n=3), read-out: CDK5/CDK5R1 IC50",6.74
same,pIC50,"CDK5/CDK5R1; independent experiment 1, read-out: CDK5/CDK5R1 IC50",6.72
same,pIC50,"CDK5/CDK5R1; independent experiment 2, read-out: CDK5/CDK5R1 IC50",6.74
same,pIC50,"CDK5/CDK5R1; live HEK-293, 2 h, mean ± S.E.M. (n=3) or mean (n=2), read-out: IC50 for CDK/cyclin complexes, CDK5/R1",6.74
same,inhibition at 10 µM,CDK6/Cyclin D1; average of experiments,98.3%
same,inhibition at 10 µM,CDK6/Cyclin D1; independent experiment 1,97.3%
same,inhibition at 10 µM,CDK6/Cyclin D1; independent experiment 2,99.2%
same,pIC50,CDK6/Cyclin D1; average (± SEM where n=3),6.57
same,pIC50,CDK6/Cyclin D1; independent experiment 1,6.54
same,pIC50,CDK6/Cyclin D1; independent experiment 2,6.60
same,inhibition at 10 µM,CDK7; average of experiments,96.4%
same,inhibition at 10 µM,CDK7; independent experiment 1,97.5%
same,inhibition at 10 µM,CDK7; independent experiment 2,95.3%
same,pIC50,CDK7; average (± SEM where n=3),8.00
same,pIC50,CDK7; independent experiment 1,7.96
same,pIC50,CDK7; independent experiment 2,8.06
same,inhibition at 10 µM,CDK8/Cyclin C; average of experiments,72.3%
same,inhibition at 10 µM,CDK8/Cyclin C; independent experiment 1,57.3%
same,inhibition at 10 µM,CDK8/Cyclin C; independent experiment 2,87.3%
same,inhibition at 10 µM,CDK9/Cyclin K; average of experiments,99.7%
same,inhibition at 10 µM,CDK9/Cyclin K; independent experiment 1,100%
same,inhibition at 10 µM,CDK9/Cyclin K; independent experiment 2,99.2%
same,inhibition at 10 µM,CDK11B/Cyclin L2; average of experiments,94.9%
same,inhibition at 10 µM,CDK11B/Cyclin L2; independent experiment 1,95.5%
same,inhibition at 10 µM,CDK11B/Cyclin L2; independent experiment 2,94.4%
